The text below walks through data of ChEMBL document CHEMBL6092171, “Discovery of Propionic Acid Derivatives with a 5-THIQ Core as Potent and Orally Bioavailable Keap1-Nrf2 Protein-Protein Interaction Inhibitors for Acute Kidney Injury” (J Med Chem, 2024).

Assay type in all cases: ADME, organism-based; call rule not given here
Data set [1] in a line: AUC (0 to t) in Sprague-Dawley rat at 1 mg/kg, iv measured upto 24 hrs by LC-MS/MS analysis. The settings on record: in vivo.
A short description of data set [2]: AUC (0 to t) in Sprague-Dawley rat at 5 mg/kg, po measured upto 24 hrs by LC-MS/MS analysis. The conditions noted are these: in vivo.
Data set [3] is described as follows: AUC (0 to infinity) in Sprague-Dawley rat at 1 mg/kg, iv measured upto 24 hrs by LC-MS/MS analysis. The settings on record: in vivo.
Data set [4] is described as follows: AUC (0 to infinity) in Sprague-Dawley rat at 5 mg/kg, po measured upto 24 hrs by LC-MS/MS analysis. The conditions noted are these: in vivo.
A short description of data set [5]: MRT (0 to t) in Sprague-Dawley rat at 1 mg/kg, iv measured upto 24 hrs by LC-MS/MS analysis. The settings on record: in vivo.
Data set [6] is described as follows: MRT (0 to t) in Sprague-Dawley rat at 5 mg/kg, po measured upto 24 hrs by LC-MS/MS analysis. The conditions noted are these: in vivo.
Data set [7] in a line: MRT (0 to infinity) in Sprague-Dawley rat at 1 mg/kg, iv measured upto 24 hrs by LC-MS/MS analysis. The conditions noted are these: in vivo.
Data set [8] is described as follows: MRT (0 to infinity) in Sprague-Dawley rat at 5 mg/kg, po measured upto 24 hrs by LC-MS/MS analysis. The settings on record: in vivo.
Data set [9] can be described thus: Half life in Sprague-Dawley rat at 1 mg/kg, iv measured upto 24 hrs by LC-MS/MS analysis. The conditions noted are these: in vivo.
The nature of data set [10]: Half life in Sprague-Dawley rat at 5 mg/kg, po measured upto 24 hrs by LC-MS/MS analysis. The conditions noted are these: in vivo.
Data set [11] in a line: Tmax in Sprague-Dawley rat at 5 mg/kg, po measured upto 24 hrs by LC-MS/MS analysis. The conditions noted are these: in vivo.
Data set [12] is described as follows: Cmax in Sprague-Dawley rat at 1 mg/kg, iv measured upto 24 hrs by LC-MS/MS analysis. The settings on record: in vivo.
Data set [13] in a line: Cmax in Sprague-Dawley rat at 5 mg/kg, po measured upto 24 hrs by LC-MS/MS analysis. The conditions noted are these: in vivo.
Data set [14] is described as follows: Volume of distribution in Sprague-Dawley rat at 1 mg/kg, iv measured upto 24 hrs by LC-MS/MS analysis. The conditions noted are these: in vivo, read-out: Vz.
A short description of data set [15]: Volume of distribution in Sprague-Dawley rat at 5 mg/kg, po measured upto 24 hrs by LC-MS/MS analysis. The conditions noted are these: in vivo.
The nature of data set [16]: Apparent clearance during terminal phase in Sprague-Dawley rat at 5 mg/kg, po measured upto 24 hrs by LC-MS/MS analysis. The settings on record: in vivo.
Data set [17] is described as follows: Oral bioavailability in Sprague-Dawley rat at 5 mg/kg measured upto 24 hrs by LC-MS/MS analysis. The conditions noted are these: in vivo.
Data set [18] is described as follows: Drug distribution in Sprague-Dawley rat kidney at 5 mg/kg, po. The conditions noted are these: in vivo.

In general, AUC(0-t) refers to the area under the concentration-time curve up to a stated or last time point. High values mean high exposure, low ones low exposure. What is called AUC(0-inf) is total exposure, with the tail of the curve extrapolated. Read a low AUC(0-inf) as low exposure. For orientation: MRT last means a mean duration of stay, worked out from the concentration-time curve. A word on the MRT inf: it is a mean duration of stay, worked out from the concentration-time curve. The term half-life denotes how long it takes for the measured level to halve. In general, Tmax refers to the time at which the peak concentration occurs. Usually Cmax stands for the highest concentration seen after dosing. What is called CL/F is clearance divided by bioavailability, as obtained after extravascular dosing. Usually bioavailability stands for dose-corrected exposure relative to a reference, in per cent. The low end stands for little systemic uptake, the high end for much systemic uptake. On to `COc1cc(C(CC(=O)O)c2cccc3c2CCN(C(=O)c2ccc(OC(C)C)cc2Cl)C3)cc2nnn(C)c12` (stereo not drawn), for which the AUC(0-t) at 24 h in [1] amounted to 267 ng·h/mL; in data set [2], 265 ng·h/mL. Further, the AUC(0-inf) was determined as 268 ng·h/mL in [3] and 266 ng·h/mL in data set [4]. Also, the mean residence time MRT last at 24 h came to 23.4 min in data set [5] and 1.77 h in data set [6]. Moreover, the MRT inf came out at 26.4 min in [7] and 1.85 h in data set [8]. Further, the half-life was 71.4 min in data set [9] and 81.6 min in data set [10]. Besides, the time of peak concentration (Tmax) in [11] was 17.4 min. The Cmax in data set [12] worked out at 1640 ng/mL; in data set [13], 186 ng/mL. Besides, the Vd in data set [14] was 6.49 L/kg. In data set [15], the Vz is 46.52 L/kg. Also, the CL/F in data set [16] is 383 mL/min/kg. The same compound had a bioavailability in [17] of 20%. Also, the Drug uptake entry in data set [18] is on record as “Active”.
